Data from ChEMBL document CHEMBL1133814, “Synthesis and progesterone receptor antagonist activities of 6-aryl benzimidazolones and benzothiazolones” (Bioorg Med Chem Lett, 2001).

Key:
Progesterone receptor [1] = target: T1, Progesterone receptor (Homo sapiens, UniProt P06401); test: Inhibitory concentration against progesterone stimulated alkaline phosphatase activity in T47D human breast carcinoma cell line; type: cell-based
T1 sequence (P06401 whole entry): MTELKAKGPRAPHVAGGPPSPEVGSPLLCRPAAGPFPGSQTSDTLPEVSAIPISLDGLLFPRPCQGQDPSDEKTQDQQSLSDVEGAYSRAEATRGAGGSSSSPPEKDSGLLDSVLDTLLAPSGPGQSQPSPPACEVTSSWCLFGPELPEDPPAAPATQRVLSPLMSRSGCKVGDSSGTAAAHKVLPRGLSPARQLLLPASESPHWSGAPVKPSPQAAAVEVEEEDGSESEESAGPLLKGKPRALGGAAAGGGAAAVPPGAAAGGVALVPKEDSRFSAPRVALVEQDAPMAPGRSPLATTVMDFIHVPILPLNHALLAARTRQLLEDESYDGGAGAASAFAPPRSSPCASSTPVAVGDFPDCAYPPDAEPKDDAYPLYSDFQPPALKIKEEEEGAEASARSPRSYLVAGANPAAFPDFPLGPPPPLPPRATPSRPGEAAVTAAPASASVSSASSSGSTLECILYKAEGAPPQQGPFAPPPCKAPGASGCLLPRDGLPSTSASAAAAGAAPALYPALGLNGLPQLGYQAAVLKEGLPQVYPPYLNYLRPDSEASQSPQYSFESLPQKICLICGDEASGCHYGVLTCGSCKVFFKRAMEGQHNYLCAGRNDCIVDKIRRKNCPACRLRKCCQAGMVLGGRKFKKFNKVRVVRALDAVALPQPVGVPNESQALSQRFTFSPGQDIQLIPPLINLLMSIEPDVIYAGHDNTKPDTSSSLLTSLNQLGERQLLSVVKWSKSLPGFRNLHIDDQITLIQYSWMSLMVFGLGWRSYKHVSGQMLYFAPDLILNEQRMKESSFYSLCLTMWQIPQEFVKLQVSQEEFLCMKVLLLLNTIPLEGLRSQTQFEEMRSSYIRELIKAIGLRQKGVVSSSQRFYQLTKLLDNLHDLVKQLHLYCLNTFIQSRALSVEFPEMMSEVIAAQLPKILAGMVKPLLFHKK

Progesterone receptor [2] = target: T1, Progesterone receptor; test: Binding affinity towards progesterone receptor was measured
Progesterone receptor [3] = target: T1, Progesterone receptor; test: Inhibitory concentration against progesterone induced PRE-luciferase activity in CV-cells; set-up: species or system Oryctolagus cuniculus

Row | Structure (SMILES) | IC50 (Progesterone receptor [1]) [nM] | Ki (Progesterone receptor [2]) [nM] | IC50 (Progesterone receptor [3]) [nM]
1 | S=c1[nH]c2cc(-c3cccc(Cl)c3)ccc2n1Cc1ccccc1 | > 10000 | – | –
2 | O=[N+]([O-])c1cccc(-c2ccc3c(c2)nc(O)n3Cc2ccccc2)c1 | > 10000 | > 10000 | > 10000
3 | S=c1[nH]c2ccc(-c3cccc(Cl)c3)cc2n1Cc1ccccc1 | 17 | 150 | –
4 | CCn1c(=O)[nH]c2ccc(-c3cccc(Cl)c3)cc21 | 29.2 | ~1000 | 106
5 | CC(C)n1c(=O)[nH]c2ccc(-c3cccc(Cl)c3)cc21 | 113 | 525 | 412
6 | Cn1c(=O)[nH]c2ccc(-c3cccc(Cl)c3)cc21 | 1000 | – | –
7 | O=c1[nH]c2ccc(-c3cccc(Cl)c3)cc2n1Cc1ccccc1 | 113 | 521 | –
8 | Oc1nc2cc(-c3cccc(Cl)c3)ccc2n1Cc1ccccc1 | > 10000 | 3130 | 3060

Now from value to molecule:

Row | IC50 (Progesterone receptor [1]) [nM] | Ki (Progesterone receptor [2]) [nM] | IC50 (Progesterone receptor [3]) [nM] | Structure (SMILES)
9 | 83.8 | 332 | 326 | O=c1[nH]c2ccc(-c3cccc([N+](=O)[O-])c3)cc2s1
10 | 62 | 714 | 257 | O=c1[nH]c2ccc(-c3cccc([N+](=O)[O-])c3)cc2n1Cc1ccccc1
11 | 73.1 | 525 | 136 | CC(C)n1c(=O)[nH]c2ccc(-c3cccc([N+](=O)[O-])c3)cc21
12 | 1000 | > 10000 | – | Cn1c(=O)[nH]c2ccc(-c3cccc([N+](=O)[O-])c3)cc21
13 | 10 | 30 | – | O=[N+]([O-])c1cccc(-c2ccc3[nH]c(=S)n(Cc4ccccc4)c3c2)c1
14 | 460 | 127 | 265 | O=c1[nH]c2ccc(-c3cccc(Cl)c3)cc2s1
